Our source for the fold induction values is patent publication US20220324835A1 (Nurix Therapeutics, Inc., priority 2018, published 2022).

Read-outs that look alike come from different tables or passages of the source.

What all share (assay type): cell-based
In assay [1] the test system is primary human total T-cells. The assay is described as follows: T-cell activation assessed by CD69 expression. An outline of the steps: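 Primary human T-cells (>95% CD3+, negative selection from PBMC) were pre-incubated with inhibitor (e.g. 10, 1.11, 0.123 μM; DMSO <0.1%) for 1 h at 37 °C. They were then stimulated 48 h with plate-bound OKT3 (coated at 10 μg/mL), alone or with 5 μg/mL soluble anti-CD28. Results are fold change over uninhibited, identically stimulated cells.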

In assay [2] the test system is T-cell. The assay is described as follows: IL-2 secretion from T-cells stimulated with anti-CD3 antibody alone (Biological Example 2). The conditions noted are these: primary human total T-cells, read-out: IL-2 secretion, Anti-CD3 stimulation, fold change over baseline; for fold induction at 1 µM: 1 μM compound; for fold induction at 8 µM: 8 μM compound.
Assay [3] deals with T-cell. The assay is described as follows: CD25 cell surface staining on T-cells stimulated with anti-CD3 antibody alone (Biological Example 2). Particulars: primary human total T-cells, baseline = anti-CD3/anti-CD28 stimulated cells without inhibitor, read-out: CD25 staining, Anti-CD3 stimulation, fold change over baseline; for fold induction at 1 µM: 1 μM compound; for fold induction at 8 µM: 8 μM compound.

[4] abbreviates: CD3/CD28 stimulation, CD4 T-cells, read-out: % CD69+ (CD4).
Where [5] appears, read: CD3/CD28 stimulation, CD8 T-cells, read-out: % CD69+ (CD8).
Setting [6] is: CD3 alone stimulation, CD4 T-cells, read-out: % CD69+ (CD4).
Where [7] appears, read: CD3 alone stimulation, CD8 T-cells, read-out: % CD69+ (CD8).

For the compound `C[C@H](Sc1nncn1C)c1cccc(NC(=O)c2cc(C(=O)N3CC[C@H](O)C3)ccn2)c1` [Compound 140, 4-[[(3S)-3-hydroxypyrrolidin-1-yl]carbonyl]-N-[3-[(1S)-1-[(4-methyl-4H-1,2,4-triazol-3-yl)sulfanyl]ethyl]phenyl]pyridine-2-carboxamide], the fold induction at 1.11 µM in assay [1] (setting [4]) is 1.4 to 1.6; in assay [1] (setting [5]), 1.2 to 1.4; in assay [1] (setting [6]), above 1.6; in assay [1] (setting [7]), 1.4 to 1.6. Moreover, the fold induction at 10 µM is above 1.6 in assay [1] (setting [4]), 1.2 to 1.4 in assay [1] (setting [5]), above 1.6 in assay [1] (setting [6]) and 1.4 to 1.6 in assay [1] (setting [7]).

`C[C@H](Cc1nncn1C)c1cccc(NC(=O)c2cccc(CCO)n2)c1` [Compound 202, 6-(2-hydroxyethyl)-N-[3-[(2R)-1-(4-methyl-4H-1,2,4-triazol-3-yl)propan-2-yl]phenyl]pyridine-2-carboxamide]: the fold induction at 1.11 µM in assay [1] (setting [4]), in assay [1] (setting [5]), in assay [1] (setting [6]) and in assay [1] (setting [7]) was at most 1.2 each time. Moreover, the fold induction at 10 µM in assay [1] (setting [4]) was 1.2 to 1.4; in assay [1] (setting [5]) it was at most 1.2; in assay [1] (setting [6]), 1.2 to 1.4; in assay [1] (setting [7]), at most 1.2.

On to `C[C@H](Cc1nncn1C)c1cccc(N2Cc3c(ccnc3C3CC3)C2=O)c1` [Compound 257, 4-cyclopropyl-2-[3-[(1R)-1-methyl-2-(4-methyl-1,2,4-triazol-3-yl)ethyl]phenyl]-3H-pyrrolo[3,4-c]pyridin-1-one], for which the fold induction at 1.11 µM in assay [1] (setting [4]), in assay [1] (setting [5]), in assay [1] (setting [6]) and in assay [1] (setting [7]) was at most 1.2 each time. Besides, the fold induction at 10 µM was in the range of 1.4 to 1.6 in assay [1] (setting [4]), 1.2 to 1.4 in assay [1] (setting [5]), 1.2 to 1.4 in assay [1] (setting [6]) and 1.2 to 1.4 in assay [1] (setting [7]).

`Cn1cnnc1[C@@H]1C[C@@H]1c1cccc(N2Cc3c(cccc3C(F)(F)F)C2=O)c1` [Compound 282, 2-(3-((1S,2R)-2-(4-methyl-4H-1,2,4-triazol-3-yl)cyclopropyl)phenyl)-4-(trifluoromethyl)isoindolin-1-one]: the fold induction at 1.11 µM in assay [1] (setting [4]), in assay [1] (setting [5]), in assay [1] (setting [6]) and in assay [1] (setting [7]) was at most 1.2 in each case. In addition, the fold induction at 10 µM in assay [1] (setting [4]) is 1.2 to 1.4; in assay [1] (setting [5]) it was 1.2 to 1.4; in assay [1] (setting [6]), 1.2 to 1.4; in assay [1] (setting [7]), at most 1.2.

In the case of `C[C@H](Cc1nncn1C)c1cccc(NC(=O)c2nc(C(F)(F)F)c[nH]2)c1` [Compound 326, (R)-N-(3-(1-(4-methyl-4H-1,2,4-triazol-3-yl)propan-2-yl)phenyl)-4-(trifluoromethyl)-1H-imidazole-2-carboxamide], the fold induction at 1.11 µM was 1.2 to 1.4 in assay [1] (setting [4]), at most 1.2 in assay [1] (setting [5]), 1.2 to 1.4 in assay [1] (setting [6]) and at most 1.2 in assay [1] (setting [7]). For the same compound, the fold induction at 10 µM lay within 1.4 to 1.6 in assay [1] (setting [4]), 1.2 to 1.4 in assay [1] (setting [5]), 1.4 to 1.6 in assay [1] (setting [6]) and 1.2 to 1.4 in assay [1] (setting [7]).

Regarding `Cn1cnnc1[C@@H]1C[C@@H]1c1cccc(N2Cc3c(ccnc3C(F)(F)F)C2=O)c1` [Compound 369, 2-{3-[(1S,2R)-2-(4-methyl-4H-1,2,4-triazol-3-yl)cyclopropyl]phenyl}-4-(trifluoromethyl)-1H,2H,3H-pyrrolo[3,4-c]pyridin-1-one], the figures for the fold induction at 1 µM in the assay with T-cell [2] and in the assay with T-cell [3] were 0.051 to 0.1 and 0.601 to 0.8, respectively. For the same compound, the fold induction at 8 µM was in the range of 0.101 to 0.15 in the assay with T-cell [2] and 0.801 to 1 in the assay with T-cell [3]. In addition, the fold induction at 1.11 µM in assay [1] (setting [4]), in assay [1] (setting [5]), in assay [1] (setting [6]) and in assay [1] (setting [7]) was at most 1.2 each time. The fold induction at 10 µM in assay [1] (setting [4]) was 1.4 to 1.6; in assay [1] (setting [5]) it was 1.2 to 1.4; in assay [1] (setting [6]), at most 1.2; in assay [1] (setting [7]), at most 1.2.

In the case of `Cc1cc2c(c(C3CC3)n1)CN(c1cccc([C@H](C)Cc3nncn3C)c1)C2=O` [Compound 372, 4-cyclopropyl-6-methyl-2-{3-[(2R)-1-(4-methyl-4H-1,2,4-triazol-3-yl)propan-2-yl]phenyl}-1H,2H,3H-pyrrolo[3,4-c]pyridin-1-one], the figures for the fold induction at 1 µM in the assay with T-cell [2] and with T-cell [3] were 0.051 to 0.1 and 0.601 to 0.8, respectively. Further, the fold induction at 8 µM was 0.101 to 0.15 with T-cell [2] and 0.801 to 1 in the assay on T-cell [3]. In addition, the fold induction at 1.11 µM in assay [1] (setting [4]), in assay [1] (setting [5]), in assay [1] (setting [6]) and in assay [1] (setting [7]) was at most 1.2 in each case. The fold induction at 10 µM in assay [1] (setting [4]), in assay [1] (setting [5]), in assay [1] (setting [6]) and in assay [1] (setting [7]) was 1.2 to 1.4 in each case.

Take `CNCc1ccc(C(=O)Nc2cccc([C@H](C)Cc3nncn3C)c2)nc1C1CC1` [Compound 376, (R)-6-cyclopropyl-N-(3-(1-(4-methyl-4H-1,2,4-triazol-3-yl)propan-2-yl)phenyl)-5-((methylamino)methyl)picolinamide]: the fold induction at 1 µM with T-cell [2] is 0.101 to 0.15; in the assay with T-cell [3] it was 0.801 to 1. Also, the results for the fold induction at 8 µM with T-cell [2] and in the assay with T-cell [3] were above 0.201 and above 1, respectively. The fold induction at 1.11 µM was 1.4 to 1.6 in assay [1] (setting [4]), 1.2 to 1.4 in assay [1] (setting [5]), above 1.6 in assay [1] (setting [6]) and 1.2 to 1.4 in assay [1] (setting [7]). For the same compound, the fold induction at 10 µM in assay [1] (setting [4]) is above 1.6; in assay [1] (setting [5]) it was 1.2 to 1.4; in assay [1] (setting [6]), above 1.6; in assay [1] (setting [7]) it was 1.4 to 1.6.
